How the values were obtained:
[1] = system: SW480; assay: Cell growth inhibition assay, SW480; assay type: cell-based, human; settings: SW480 colon cancer cell line in vitro
Description: Cells were plated at a density of between 500 to 5000 cells per well for adherent cell lines depending on doubling time, and 15,000 cells per well for lymphoblastic leukemia cell lines, in a 96-well plate in 200 μl of growth media. Plates were incubated overnight at 37 °C before adding the inhibitors. Inhibitors were serially diluted from the stock solutions in complete medium and added to the cells. Incubation in the presence of inhibitors was continued for […]. Cell viability was assessed by the AlamarBlue (Invitrogen) or CellTiterBlue/Glo (Promega) method according to manufacturer’s instructions. The curve fits and IC50 values were generated in PRISM (GraphPad, San Diego, CA).
a Chemical structures of the triazine-based anti-mitotics used in this study. b Dose-dependent antiproliferative activity of key derivatives and comparison with commonly used anti-mitotics in SW480 cell line: Data shown is cell viability (as measured by CellTiterGlo) after 72 h relative to untreated control cells. Shown is mean of 3 independent experiments performed in duplicate +/- SEM. c Dose-dependent cell cycle analysis of key derivatives of WEHI-7326 development in SW480 cell line. Data are presented as percentage of cells in G2/M or subG0 after 24 h incubation with titration of inhibitors as assessed by PI staining and flow cytometry. Mean average of 3 experiments +/- SEM. d Comparison of IC50 and EC50 values of triazine compounds and anti-mitotic drugs in SW480 cell line: inhibition of cellular proliferation and cell cycle arrest in G2/M. IC50 and EC50 values are the mean of 3 independent experiments run in duplicates +/- SEM (n.d. = not determined). e HepG2 cytotoxic assay: cell viability assay after 48 h, normalised to 0.4% DMSO (100% viability) and 2 μM bortezomib (0% viability). The data is the mean average of 2 experiments +/- SD.

[2] = system: SW480; assay: Cell cycle analysis (G2/M arrest, PI staining, flow cytometry), SW480; assay type: cell-based, human; settings: SW480; for EC50: Homo sapiens, overnight incubation, PI staining, flow cytometry, mean of 3 ± SEM, read-out: EC50 (G2/M arrest)
Description: Fig. 2 Antimitotic activity of WEHI-7326: cancer cell lines and effects on tubulin polymerization. a Dose-dependent antimitotic activity of WEHI-7326, nocodazol and taxol in tumor cell lines SW480 (colorectal) and MDA-MB-231 (breast). Data are presented as percentage of cells in G2/M after overnight incubation with increasing concentrations of inhibitors and PI staining followed by flow cytometry analysis. Mean average of 3 independent experiments ±SEM. b EC50 values (nM) for G2/M arrest on SW480 and MDA-MB-231 cell lines, given as mean average of 3 independent experiments ±SEM. c Western blot analysis of mitotic arrest in SW480 and MDA-MB-231 cells treated with EC50 concentrations of WEHI-7326 or Paclitaxel as marked by expression of phosho-S10 Histone H3 (p-HH3 S10), at different timepoints post treatment. Expression of β-actin provided as loading control. d Cell cycle analysis of LIM1899 cells 72 h post treatment with increasing concentrations of WEHI-7326 as measured by PI staining for DNA content followed by flow cytometry analysis. Sub-G1 represents apoptotic fractions and >4 N cell fractions of mitotic slippage. e Immunofluorescence confocal microscopy of tubulin polymerization in SW480 cells treated by various agents. Cells were incubated for 24 h with control (0.1% DMSO), nocodazole (1 μM), paclitaxel (1 μM), myoseverin B (1 μM) or WEHI-7326 (1 μM). Cells were fixed and stained with β-tubulin antibody (green) and DAPI (DNA; blue) and phalloidin (actin, red). Shown are single confocal sections and enlarged areas (3x) to highlight changes in microtubule network; scale bar = 20 μm. Representative images from 2 independent experiments. f Cellular tubulin polymerization assay in cells: SW480 cells were incubated overnight with paclitaxel, myoseverin B or WEHI-7326, then processed to detect fractions of polymerized (P) and soluble (S) tubulin by western blot analysis. Representative blot of 3 independent experiments. g Tubulin polymerization was assessed in vitro over time using a fluorescence-based tubulin polymerization assay (BK011P). Tubulin was incubated with control (DMSO), paclitaxel (3 μM), nocodazole (15 μM) and WEHI-7326 at indicated concentrations (in DMSO). Polymerization was measured by excitation at 360 nm and emission at 420 nm. Representative graph of 3 independent experiments performed in duplicates. […]
(§1) Cells in log growth were supplemented with fresh medium with either vehicle (control) or compound at the stated final concentrations. […] After 1 h incubation at room temperature in the dark, cells were analyzed on a FACScan (Becton and Dickinson) in CellQuest. The percentage of cells in each phase of the cell cycle was determined using ModFit software (Verity, http://www.vsh.com). Early and late apoptotic responses elicited by WEHI-7326 were assessed using Dead Cell Apoptosis Kit (ThermoFisher Scientific) with Annexin V FITC and PI following manufacturer’s instructions. Cells were incubated 24 h with 6-point, 4-fold titration of WEHI-7326, washed twice with cold 1X PBS, resuspended in 1X Annexin Binding Buffer, incubated with FITC Annexin V and PI for 15 mins at RT in the dark and subsequently analyzed by flow cytometry.

[3] = system: 24 T TNBC PDX; assay: TNBC PDX model 24T; assay type: in vivo, NOD-SCID-IL2Rγc–/– mice; settings: 24 T PDX; docetaxel 10 mg/kg i.p. once; WEHI-7326 20 mg/kg i.v. biweekly
Description: (§2) Cohorts of about 30 female mice were seeded with thawed single cell suspensions of early passage human breast tumors (passage 2 or 3). Briefly, 150,000–250,000 cells were resuspended in 10 µl of transplantation buffer (50% fetal calf serum, 10% of a 0.04% trypan blue solution and 40% PBS) and growth-factor-reduced Matrigel [BD] at a ratio of 3:1, and injected into the cleared mammary fat pads of 3- or 4-week-old NOD-SCID-IL2Rγc–/– female mice. Mice were monitored for tumor development three times weekly and tumor size measured using digital Vernier calipers. Tumor volume was estimated by measuring the minimum and maximum tumor diameters using the formula: (minimum diameter)^2 x (maximum diameter)/2. Once tumors arose, mice were randomized into treatment arms. Treatment was initiated when the tumor volume reached 80–120 mm^3. Randomization and tumor measurements were managed using the Study Director software (v 3.0, studylog). Mice were sacrificed at the first measurement where tumor volume exceeded 600 mm^3, or if their health deteriorated for reasons other than disease progression or drug toxicity (censored event).
(§3) Mice were treated with either docetaxel (10 mg/kg; i.p.; once), cisplatin (4 mg/kg; i.p.; once) or WEHI-7326 (20 mg/kg; twice a week (Monday and Thursday); i.v.). Vehicle treated mice were administered with the vehicle for WEHI-7326. Docetaxel was resuspended at 2 mg/ml in PBS:Tween-80:ethanol = 90:5:5 (v/v/v). WEHI-7326 was resuspended at 2 mg/ml in saline.

[4] = system: AH406 LUSC PDX; assay: LUSC PDX model AH406; assay type: in vivo, NOD-SCID-IL2Rγc–/– mice; settings: WEHI-7326 20 mg/kg i.v. biweekly, docetaxel 10 mg/kg i.p. once
Description: (§4) LUSC PDXs were generated as described in[25]. PDXs at passage 4 were defrosted and washed with PBS before counting. 200,000 to 500,000 cells were then injected in a 50:50 PBS:Matrigel mix into the flanks of NOD-SCID-IL2Rγc–/– male mice. Tumors were measured twice weekly with calipers and treatment started when tumors were between 70–120 mm^3. Mice were assigned to treatment groups based on average tumor volume per group. Mice were culled when tumors reached a volume of 600 mm^3.

[5] = system: MH792 LUSC PDX; assay: LUSC PDX model MH792; assay type: in vivo, NOD-SCID-IL2Rγc–/– mice; settings: MH792 PDX; WEHI-7326 20 mg/kg i.v. biweekly; docetaxel 10 mg/kg i.p. once
Description: as §4

[6] = system: MDA-MB-231 LNA DRE (docetaxel resistant breast cancer) xenograft; assay: Orthotopic MDA-MB-231 LNA-DRE xenograft; assay type: in vivo, Balb/c nude mice; settings: docetaxel 10 mg/kg weekly i.v., WEHI-7326 30 mg/kg biweekly i.v.
Description: LoVo (4 × 10^6), PC3 (3 × 10^6) or MDA-MB-231 LNA DRE (10^6) cells were collected by trypsination and injected with 50 μl 1:1 PBS:Matrigel (v/v) subcutaneously on the right flank of 18 female (LoVo), 40 male (PC3) or into 4th mammary fat pad of 40 female (MDA231) Balb/c nude mice. Tumor growth was monitored and average tumor size at commencement of dosing was 100 mm^3. Mice were randomized into 3 arms of each 5 (LoVo), 10 (PC3) or 12 (MDA23) mice respectively and treatment with vehicle (saline), WEHI-7326 (biweekly) or docetaxel (weekly) was administered via tail vein injection. Tumor volumes were measured at least twice weekly with calipers and the experiments were terminated when tumors in the control group started exceeding 1500 mm^3. For LoVo, both vehicle and 25 mg/kg WEHI-7326 groups were harvested 24 h, but 20 mg/kg WEHI-7326 group harvested 1 h post final dose. For PC3, docetaxel group was not harvested in an attempt to grow out resistant tumors.

[7] = system: 322 T TNBC PDX; assay: TNBC PDX model 322T; assay type: in vivo, NOD-SCID-IL2Rγc–/– mice; settings: 322 T PDX; docetaxel 10 mg/kg i.p. once; WEHI-7326 20 mg/kg i.v. biweekly
Description: as §2, §3

[8] = system: MDA-MB-231; assay: Cell cycle analysis (G2/M arrest, PI staining, flow cytometry), MDA-MB-231; assay type: cell-based; settings: Homo sapiens; MDA-MB-231; overnight incubation, PI staining, flow cytometry; mean of 3 ± SEM; read-out: EC50 (G2/M arrest)
Description: Fig. 2 Antimitotic activity of WEHI-7326: cancer cell lines and effects on tubulin polymerization. a Dose-dependent antimitotic activity of WEHI-7326, nocodazol and taxol in tumor cell lines SW480 (colorectal) and MDA-MB-231 (breast). Data are presented as percentage of cells in G2/M after overnight incubation with increasing concentrations of inhibitors and PI staining followed by flow cytometry analysis. Mean average of 3 independent experiments ±SEM. b EC50 values (nM) for G2/M arrest on SW480 and MDA-MB-231 cell lines, given as mean average of 3 independent experiments ±SEM. c Western blot analysis of mitotic arrest in SW480 and MDA-MB-231 cells treated with EC50 concentrations of WEHI-7326 or Paclitaxel as marked by expression of phosho-S10 Histone H3 (p-HH3 S10), at different timepoints post treatment. Expression of β-actin provided as loading control. d Cell cycle analysis of LIM1899 cells 72 h post treatment with increasing concentrations of WEHI-7326 as measured by PI staining for DNA content followed by flow cytometry analysis. Sub-G1 represents apoptotic fractions and >4 N cell fractions of mitotic slippage. e Immunofluorescence confocal microscopy of tubulin polymerization in SW480 cells treated by various agents. […] Representative blot of 3 independent experiments. g Tubulin polymerization was assessed in vitro over time using a fluorescence-based tubulin polymerization assay (BK011P). […] Polymerization was measured by excitation at 360 nm and emission at 420 nm. […]
as §1, with “Cells were incubated 24 h with 6-point, 4-fold titration of WEHI-7326, washed twice with cold 1X PBS, resuspended in 1X Annexin Binding Buffer, incubated with FITC Annexin V and PI for 15 mins at RT in the dark and subsequently analyzed by flow cytometry.” left out

With `COc1ccc(CNc2nc(NCc3ccc(OC)cc3)nc(NN3CC(=O)NC3=O)n2)cc1` [compound 6] the Concentration inhibiting proliferation [1] was “at or below micromolar concentration” and the “G2/M cell cycle arrest” value [2] was “strong G2/M cell cycle arrest”.
In the case of `CC(=O)O[C@@]12CO[C@@H]1C[C@H](O)[C@@]1(C)C(=O)[C@H](O)C3=C(C)[C@@H](OC(=O)[C@H](O)[C@@H](NC(=O)OC(C)(C)C)c4ccccc4)C[C@@](O)([C@@H](OC(=O)c4ccccc4)[C@H]21)C3(C)C` [docetaxel, reference compound], the Survival time [3] is reported as 11 days, the Median survival [4] is reported as 24 days and the Median survival [5] is reported as 22 days. For the same compound, the “Tumor growth inhibition (TGI)” value [6] was 70% and the Survival time [7] was 7 days.
In the case of `CC(=O)O[C@H]1C(=O)[C@@]2(C)[C@H]([C@H](OC(=O)c3ccccc3)[C@]3(O)C[C@H](OC(=O)[C@H](O)[C@@H](NC(=O)c4ccccc4)c4ccccc4)C(C)=C1C3(C)C)[C@]1(OC(C)=O)CO[C@@H]1C[C@@H]2O` [Paclitaxel, paclitaxel, reference compound], the EC50 [2] is reported as 39.3 ± 4.1 nM and the EC50 [8] is reported as 5.6 ± 3.1 nM.
`COC(=O)Nc1nc2ccc(C(=O)c3cccs3)cc2[nH]1` [Nocodazol, nocodazole, reference compound] was tested, and the EC50 [2] was 57.4 ± 5.9 nM and the EC50 [8] was 37.2 ± 7.2 nM.

— PMC7955127, “Preclinical small molecule WEHI-7326 overcomes drug resistance and elicits response in patient-derived xenograft models of human treatment-refractory tumors” (Cell Death & Disease, 2021)
